US7307102B2, “Method of preventing or treating estrogen-dependent diseases and disorders” (Duke University, priority 1997, dated 2007)

Experiments:
[1] = molecular target: T1, wild-type human estrogen receptor (ERwt) (Homo sapiens, UniProt P03372); assay: C3 promoter-luciferase cotransfection assay in HepG2 cells, ERwt; type: cell-based
T1 construct: expressed in transfected cells; host or cells: HepG2
T1 sequence (P03372 1-595): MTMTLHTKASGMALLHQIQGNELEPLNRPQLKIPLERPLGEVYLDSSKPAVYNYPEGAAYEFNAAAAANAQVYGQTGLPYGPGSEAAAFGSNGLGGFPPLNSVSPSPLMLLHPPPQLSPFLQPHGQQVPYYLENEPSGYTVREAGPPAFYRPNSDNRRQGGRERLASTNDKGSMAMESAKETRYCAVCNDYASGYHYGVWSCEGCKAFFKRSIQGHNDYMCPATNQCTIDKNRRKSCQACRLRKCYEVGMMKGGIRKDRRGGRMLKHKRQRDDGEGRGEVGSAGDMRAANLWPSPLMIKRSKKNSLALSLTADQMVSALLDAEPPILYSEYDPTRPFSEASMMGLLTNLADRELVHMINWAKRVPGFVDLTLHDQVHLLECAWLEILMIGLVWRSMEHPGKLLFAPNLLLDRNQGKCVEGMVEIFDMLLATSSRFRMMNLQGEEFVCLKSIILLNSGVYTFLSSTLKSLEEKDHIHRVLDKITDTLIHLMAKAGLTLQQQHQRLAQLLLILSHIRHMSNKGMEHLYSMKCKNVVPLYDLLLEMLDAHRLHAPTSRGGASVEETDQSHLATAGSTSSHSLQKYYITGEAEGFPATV
Text: FIGS. 1A and 1B. […] The human C3 promoter (−1807 to +58) fused to the firefly luciferase reporter gene was transfected along with an expression plasmid containing (FIG. 1A) the wild-type human estrogen receptor (ERwt), or (FIG. 1B) a mutated ER in which the AF-2 function had been disrupted (ER-TAFl) into HepG2 cells and tested for transcriptional activation in the presence of increasing concentrations of ER-modulator as indicated. Transfections were normalized for efficiency and cell number by cotransfecting an expression plasmid containing β-galactosidase. The normalized response was obtained by dividing light units by the activity of β-galactosidase as measured in an enzymatic assay. Triplicate transfections were performed. The data shown are representative of multiple experiments performed under similar conditions.
FIGS. 2A-2C. […] FIG. 2A. […] FIG. 2B. […] FIG. 2C. […] Transfections were normalized for efficiency and cell number by cotransfecting an expression plasmid containing β-galactosidase. The normalized response was obtained by dividing light units by the activity of β-galactosidase as measured in an enzymatic assay. Representative assays are shown in which triplicate transfections were performed. Error bars represent the standard error of the mean (SEM).
HepG2 cells were maintained in Modified Eagles Medium (MEM) (Life Technologies, Grand Island, N.Y.) plus 10% Fetal Calf Serum (FCS) (Life Technologies). Cells were plated in 24 well plates (coated with gelatin) 24 hours prior to transfection. DNA was introduced into the cells using Lipofectin (Life Technologies). Briefly, triplicate transfections were performed using 3 μg of total DNA. For standard transfections, 500 ng of pCMV-β-Gal (normalization vector), 1500 ng reporter (variable) and 1000 ng receptor (pRST7-hER (Dana et al, Mol. Endocrinol. 8:1193-1207 (1994)) were used for each triplicate. Incubation of the cells with Lipofectin proceeded for 3 hrs, at which time media was removed, cells were washed with PBS and then induced with the appropriate hormone diluted in phenol red-free media containing 10% charcoal stripped CS (Cyclone Inc.). Incubation with hormone continued for 48 hrs, after which cells were lysed and assayed for luciferase and β-galactosidase activity as previously described (Norris et al, JBC 270:22777-22782 (1995)).
A series of in vitro screens have been developed that permit the classification of ER-modulators into four mechanistically distinct groups (Tzukerman et al, Mol. Endocrinol. 8:21-30 (1994)). […] Using these assays, it has been possible to derive “fingerprints” of known ER-modulators (McDonnell et al, Mol. Endocrinol. 9:659-669 (1995)).
Subsequently, the transfected cells were assayed for luceriferase and β-galactosidase activity. Each data point in this experiment represents the average of triplicate determinations of the transcriptional activity under given experimental conditions.

[2] = tested on: MCF-7 breast cancer tumors; assay: Dose response study, MCF-7 breast cancer tumors in nude mice (Example 5); type: in vivo, mouse; settings: after 8 weeks, 0.6 mg and 1.0 mg vs 1.0 mg tamoxifen, FIG. 10
Protocol: 10 OVX donor mice were injected with 5 million MCF-7 cells. The resulting tumors were transplanted to recipient mice. All animals were given slow release estradiol pellets. […] Tumors were measured daily with calipers, and the area calculated as follows: Area=½×w/2×π.

## CC/C(=C(\c1ccccc1)c1ccc(/C=C/C(=O)O)cc1)c1ccccc1 [GW5638]
[1]; C3 promoter, co-addition with ICI182,780, FIG. 2C
  reversal of the inverse agonist activity of ICI182,780: partially reversed
[1]; ERwt, 10^−8M 17-β-estradiol or tamoxifen, FIG. 2A
  inhibition of the agonist activity manifested by tamoxifen or estradiol: inhibited
[1]; ERwt, compound alone, FIG. 1A/2A
  agonist / inverse agonist activity on the C3 promoter: do not demonstrate any agonist or antagonist activity
[2]
  tumor growth compared with tamoxifen: indistinguishable from the 1.0 mg tamoxifen
